“And” between values parts separate entries of the source, which are not always exact repeats. Equal values may be shown once. Inconclusive results and toxic doses are left out. No stated cut-off is given here; in the data, active means T/C of 150% or more; inactive means T/C below 125%.
Tested on: L1210 leukemia ip in BDF1 mice, survival T/C
Assay: NCI In Vivo Anticancer Drug Screen. Data for tumor model L1210 Leukemia (intraperitoneal) in B6D2F1 (BDF1) mice
Conditions: endpoint: mean survival time, higher = longer survival
How it was run: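 Read-out is survival time, reported as the treated-group measurement over the vehicle-control measurement.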

[1] = dose: 100.0 mg/kg/injection, schedule: Q01DX001 (ip), vehicle: saline
[2] = dose: 200.0 mg/kg/injection, schedule: Q01DX001 (ip), vehicle: saline
[3] = dose: 400.0 mg/kg/injection, schedule: Q01DX001 (ip), vehicle: saline
[4] = dose: 50.0 mg/kg/injection, schedule: Q01DX001 (ip), vehicle: carboxymethylcellulose (CMC)
[5] = dose: 100.0 mg/kg/injection, schedule: Q01DX001 (ip), vehicle: carboxymethylcellulose (CMC)
[6] = dose: 200.0 mg/kg/injection, schedule: Q01DX001 (ip), vehicle: carboxymethylcellulose (CMC)
[7] = dose: 400.0 mg/kg/injection, schedule: Q01DX001 (ip), vehicle: carboxymethylcellulose (CMC)
[8] = dose: 100.0 mg/kg/injection, schedule: Q01DX009 (ip), vehicle: Klucel (hydroxypropylcellulose) (HPC)
[9] = dose: 100.0 mg/kg/injection, schedule: Q04DX002 (ip), vehicle: Klucel (hydroxypropylcellulose) (HPC)
[10] = dose: 100.0 mg/kg/injection, schedule: Q04DX003 (ip), vehicle: Klucel (hydroxypropylcellulose) (HPC)
[11] = dose: 200.0 mg/kg/injection, schedule: Q01DX009 (ip), vehicle: Klucel (hydroxypropylcellulose) (HPC)
[12] = dose: 200.0 mg/kg/injection, schedule: Q04DX002 (ip), vehicle: Klucel (hydroxypropylcellulose) (HPC)
[13] = dose: 200.0 mg/kg/injection, schedule: Q04DX003 (ip), vehicle: Klucel (hydroxypropylcellulose) (HPC)
[14] = dose: 400.0 mg/kg/injection, schedule: Q01DX009 (ip), vehicle: Klucel (hydroxypropylcellulose) (HPC)
[15] = dose: 100.0 mg/kg/injection, schedule: Q04DX003 (ip), vehicle: saline with Tween-80
[16] = dose: 200.0 mg/kg/injection, schedule: Q04DX003 (ip), vehicle: saline with Tween-80
[17] = dose: 400.0 mg/kg/injection, schedule: Q04DX003 (ip), vehicle: saline with Tween-80

Measured: T/C

CC(NC(=O)CNC(=O)c1cnc2ccccc2n1)C(=O)O (stereo not drawn)
inactive: [1] 100 % of control | [2] 101 % of control | [3] 94 % of control

O=S(=O)(NC1CCCCC1)c1ccccc1
inactive: dose: 75.0 mg/kg/injection, schedule: Q01DX009 (ip), vehicle: saline with Tween-80 94 % of control | dose: 150.0 mg/kg/injection, schedule: Q01DX009 (ip), vehicle: saline with Tween-80 95 % of control | dose: 300.0 mg/kg/injection, schedule: Q01DX009 (ip), vehicle: saline with Tween-80 97 % of control

C=CCOc1c(Cl)cc(Cl)cc1Cl
inactive: [1] 100 % of control | [2] 100 % of control | [3] 100 % of control

C=NNC(=O)c1ccc(OC)cc1
inactive: [4] 96 % of control | [5] 96 % of control | [6] 93 % of control | [7] 93 % of control

O=C(O)CC1(C(=O)O)CC2CCC1C2 (stereo not drawn)
inactive: dose: 100.0 mg/kg/injection, schedule: Q01DX009 (ip), vehicle: carboxymethylcellulose (CMC) 91 % of control | dose: 100.0 mg/kg/injection, schedule: Q04DX003 (ip), vehicle: carboxymethylcellulose (CMC) 103 % of control | dose: 200.0 mg/kg/injection, schedule: Q01DX009 (ip), vehicle: carboxymethylcellulose (CMC) 94 % of control | dose: 200.0 mg/kg/injection, schedule: Q04DX003 (ip), vehicle: carboxymethylcellulose (CMC) 103 % of control | dose: 400.0 mg/kg/injection, schedule: Q01DX009 (ip), vehicle: carboxymethylcellulose (CMC) 92 % of control | dose: 400.0 mg/kg/injection, schedule: Q04DX003 (ip), vehicle: carboxymethylcellulose (CMC) 100 % of control

Cc1ccc(-c2ccc(C)cc2[N+](=O)[O-])cc1
inactive: [5] 91 % of control | [6] 100 % of control | [7] 102 % of control

O=C1CCC2CN3CCc4c([nH]c5ccccc45)C3CC2C1 (stereo not drawn)
inactive: dose: 75.0 mg/kg/injection, schedule: Q01DX001 (ip), vehicle: other 110 % of control

Cc1c([N+](=O)[O-])cc(C(=O)c2ccccc2C(=O)O)cc1[N+](=O)[O-]
inactive: dose: 75.0 mg/kg/injection, schedule: Q04DX003 (ip), vehicle: Klucel (hydroxypropylcellulose) (HPC) 98 % of control | dose: 150.0 mg/kg/injection, schedule: Q04DX003 (ip), vehicle: Klucel (hydroxypropylcellulose) (HPC) 91 % of control | dose: 300.0 mg/kg/injection, schedule: Q04DX003 (ip), vehicle: Klucel (hydroxypropylcellulose) (HPC) 91 % of control

CCOc1ccccc1-n1c(-c2ccc([N+](=O)[O-])cc2)csc1=NC(=O)c1cccc([N+](=O)[O-])c1
inactive: dose: 100.0 mg/kg/injection, schedule: Q01DX001 (ip), vehicle: Klucel (hydroxypropylcellulose) (HPC) 101 % of control | [8] 96 % of control and 100 % of control and 106 % of control | [9] 94 % of control and 98 % of control | [10] 101 % of control | dose: 200.0 mg/kg/injection, schedule: Q01DX001 (ip), vehicle: Klucel (hydroxypropylcellulose) (HPC) 101 % of control | [11] 93 % of control (2×) and 95 % of control | [12] 97 % of control and 98 % of control | [13] 95 % of control | dose: 400.0 mg/kg/injection, schedule: Q01DX001 (ip), vehicle: Klucel (hydroxypropylcellulose) (HPC) 98 % of control | [14] 95 % of control and 97 % of control (2×) | dose: 400.0 mg/kg/injection, schedule: Q04DX002 (ip), vehicle: Klucel (hydroxypropylcellulose) (HPC) 96 % of control and 97 % of control | dose: 400.0 mg/kg/injection, schedule: Q04DX003 (ip), vehicle: Klucel (hydroxypropylcellulose) (HPC) 93 % of control

ClCCN(CCCl)CCCN1c2ccccc2Sc2ccc(Cl)cc21
inactive: dose: 1.56 mg/kg/injection, schedule: Q01DX009 (ip), vehicle: saline with Tween-80 100 % of control | dose: 3.12 mg/kg/injection, schedule: Q01DX001 (ip), vehicle: saline with Tween-80 105 % of control | dose: 3.12 mg/kg/injection, schedule: Q01DX009 (ip), vehicle: saline with Tween-80 112 % of control | dose: 6.25 mg/kg/injection, schedule: Q01DX001 (ip), vehicle: saline with Tween-80 103 % of control | dose: 6.25 mg/kg/injection, schedule: Q01DX009 (ip), vehicle: saline with Tween-80 110 % of control | dose: 6.25 mg/kg/injection, schedule: Q04DX003 (ip), vehicle: saline with Tween-80 102 % of control | dose: 12.5 mg/kg/injection, schedule: Q01DX001 (ip), vehicle: saline with Tween-80 108 % of control | dose: 12.5 mg/kg/injection, schedule: Q01DX009 (ip), vehicle: saline with Tween-80 112 % of control | dose: 12.5 mg/kg/injection, schedule: Q04DX003 (ip), vehicle: saline with Tween-80 107 % of control | dose: 25.0 mg/kg/injection, schedule: Q04DX003 (ip), vehicle: saline with Tween-80 110 % of control | dose: 50.0 mg/kg/injection, schedule: Q04DX003 (ip), vehicle: saline with Tween-80 122 % of control

CC(C)N(C)c1ccc(N=Nc2cc(Cl)ccc2Cl)cc1
inactive: [15] 98 % of control | [16] 102 % of control | [17] 104 % of control

CCC(C)CC=O (stereo not drawn)
inactive: [4] 95 % of control | [5] 98 % of control | [6] 93 % of control | [7] 101 % of control

O=C(/C=C/c1ccc([N+](=O)[O-])cc1)c1ccc(Cl)cc1
inactive: [15] 104 % of control | [16] 94 % of control | [17] 91 % of control

O=C(NCCCl)Nc1cccc2c1CCC2
inactive: [10] 93 % of control | [13] 86 % of control

O=S1(=O)CCCCN1
inactive: dose: 44.0 mg/kg/injection, schedule: Q01DX009 (ip), vehicle: saline 101 % of control | dose: 87.5 mg/kg/injection, schedule: Q01DX009 (ip), vehicle: saline 102 % of control | dose: 175.0 mg/kg/injection, schedule: Q01DX009 (ip), vehicle: saline 98 % of control | dose: 350.0 mg/kg/injection, schedule: Q01DX009 (ip), vehicle: saline 90 % of control

O=C(Nc1nccs1)c1cc2ccccc2cc1O
inactive: dose: 100.0 mg/kg/injection, schedule: Q04DX002 (ip), vehicle: saline with Tween-80 97 % of control | dose: 200.0 mg/kg/injection, schedule: Q04DX002 (ip), vehicle: saline with Tween-80 87 % of control | dose: 400.0 mg/kg/injection, schedule: Q04DX002 (ip), vehicle: saline with Tween-80 87 % of control

C/C(Cc1ccccc1)=N\[N+](C)(C)C
inactive: dose: 75.0 mg/kg/injection, schedule: Q01DX009 (ip), vehicle: saline 107 % of control | dose: 100.0 mg/kg/injection, schedule: Q04DX003 (ip), vehicle: saline 104 % of control | dose: 150.0 mg/kg/injection, schedule: Q01DX009 (ip), vehicle: saline 100 % of control | dose: 200.0 mg/kg/injection, schedule: Q04DX003 (ip), vehicle: saline 86 % of control

Nc1cc(Nc2cccc(Br)c2)nc(N)n1
inactive: [9] 97 % of control | [12] 108 % of control

Cc1ccc(Cl)c(NC(=O)Nc2ccccc2Cl)c1
inactive: [8] 94 % of control and 90 % of control | [11] 93 % of control | [14] 88 % of control and 89 % of control

Cn1ncc(=O)n(C)c1=O
inactive: dose: 50.0 mg/kg/injection, schedule: Q01DX009 (ip), vehicle: saline 97 % of control | dose: 100.0 mg/kg/injection, schedule: Q01DX009 (ip), vehicle: saline 97 % of control | dose: 200.0 mg/kg/injection, schedule: Q01DX009 (ip), vehicle: saline 93 % of control

O=C(Nc1cccc(C(=O)Nc2cc(C3=NCCN3)cc(C3=NCCN3)c2)c1)Nc1cccc(C(=O)Nc2cc(C3=NCCN3)cc(C3=NCCN3)c2)c1
inactive: dose: 15.0 mg/kg/injection, schedule: Q01DX Z (ip), vehicle: methylcellulose (MC) 109 % of control | dose: 30.0 mg/kg/injection, schedule: Q01DX Z (ip), vehicle: methylcellulose (MC) 105 % of control | dose: 60.0 mg/kg/injection, schedule: Q01DX Z (ip), vehicle: methylcellulose (MC) 96 % of control

Reference: PubChem BioAssay AID248 (DTP/NCI, 2004)
